{"source": "patent US20050059641A1", "about": "“Compositions and methods for treating and preventing cancer using analogs of vitamin D” (Aphios Corporation, priority 2003, published 2005)", "key": {"[1]": {"tested_on": "PZ-HPV-7 (papillovirus immortalized normal prostate cells)", "experiment": "3H-thymidine incorporation assay, PZ-HPV-7", "type": "cell-based", "details": "PZ-HPV-7 cells; for effect on proliferation (3H-thymidine incorporation): 10^−6M, 16 hours; for antiproliferative effect (3H-thymidine incorporation): compared to 1,25(OH)2D3", "procedure": "(§1) It is well known that secretory epithelial cells are the main sites for the development of cancers of the breast, prostate and various other organs.\n(§2) The inventors further studied the effect of 1,25(OH)2D3-3-BE on LNCAP cells (most closely resembling human hormone-sensitive prostate cancer) and PZ-HPV-7 cells (immortalized normal prostate cells). The cells were treated with ethanol or 10^−6M of either 1,25(OH)2D3 or 1,25(OH)2D3-3-BE for 16 hours and the effect on proliferation was determined by ^3H-thymidine incorporation assays as described earlier. The viable cell count was determined by Methylene blue assay. The Methylene blue assay is a simple colorimetric method that is widely used to determine the viable cell count.\n(§3) In a study, investigators compared the growth-inhibitory effects of 25-OH-D3-3-BE and 1,25(OH)2D3 in several VDR-positive epithelial cells, e.g. keratinocytes (primary skin cells), MCF-7 cells (breast cancer cells), hormone-sensitive LNCaP and hormone-refractory PC3 cells (prostate cancer cells), and PZ-HPV-7 (papillovirus immortalized normal prostate cells) by using ^3H-thymidine incorporation assays (FIGS. 14-19)."}, "[2]": {"tested_on": "LNCaP cells (prostate cancer cells)", "experiment": "3H-thymidine incorporation assay, LNCaP", "type": "cell-based, human", "details": "for effect on proliferation (3H-thymidine incorporation): 10^−6M, 16 hours; for dose-dependency of antiproliferative effect: 10^−8-10^−6M; for antiproliferative effect (3H-thymidine incorporation): compared to 1,25(OH)2D3", "procedure": "as §2\nThe inventors studied dose-dependency of antiproliferation and cytotoxicity by 1,25(OH)2D3 or 1,25(OH)2D3-3-BE in LNCaP cells. The cells were treated with 10^−8-10^−6M of either 1,25(OH)2D3 or 1,25(OH)2D3-3-BE or ethanol (used as a control). The effect on proliferation and viable cell count were determined by using ^3H-thymidine incorporation and Methylene blue assay respectively. […]\nas §3"}, "[3]": {"tested_on": "PC3 cells (prostate cancer cells)", "experiment": "3H-thymidine incorporation assay, PC3", "type": "cell-based, human", "details": "for antiproliferative effect (3H-thymidine incorporation): PC3 cells, compared to 1,25(OH)2D3", "source_text": "as §1, §3\nSince 25-OH-D3-3-BE contains an ester bond, its hydrolysis by esterases in growing cells would produce equimolar amounts of bromoacetic acid (BAA) and 25-OH-D3 (see, FIG. 21).\nFurthermore, fetal calf serum (FCS) contains many proteins, including vitamin D-binding protein, which potentially could absorb 25-OH-D3-3-BE before it reacts with VDR. Typically, the assays described herein were carried out in a media containing 10% FCS (after serum-depriving the cells for 15 hours)."}, "[4]": {"tested_on": "hormone-refractory PC3 cells", "experiment": "microscopic examination of the cells, PC3", "type": "cell-based, human", "details": "PC3, treated for sixteen (16) hours"}, "[5]": {"tested_on": "primary cultures of normal human keratinocytes", "experiment": "microscopic examination of the cells, keratinocytes", "type": "cell-based", "details": "treated for sixteen (16) hours"}, "PC-3 cells": {"tested_on": "PC-3 cells", "experiment": "DNA-fragmentation analysis", "type": "cell-based, human", "details": "250 nM, 10 hours", "procedure": "(a) DNA-fragmentation analysis: PC-3 cells (2×10^6) were treated with 250 nM of 1,25(OH)2D3, 25-OH-D3 or 25-OH-D3-3-BE for 10 hours. The cells were harvested and lysed in 0.5 ml lysis buffer (20 mM Tris-HCl, 10 mM EDTA, 0.5% Triton X-100, pH 8.0), and DNA was extracted using phenol-chloroform procedure. The DNA was resuspended in 0.1 ml of 20 mM Tris-HCl, pH 8 and treated with Rnase, followed by electrophoresis on 1.2% agarose gel in TAE. The DNA was visualized under UV light after ethidinium bromide staining."}, "[6]": {"tested_on": "keratinocytes (primary cells)", "experiment": "3H-thymidine incorporation assay, keratinocytes", "type": "cell-based, human", "details": "compared to 1,25(OH)2D3", "source_text": "as §1, §3"}, "[7]": {"tested_on": "MCF-7 cells (breast cancer cells)", "experiment": "3H-thymidine incorporation assay, MCF-7", "type": "cell-based", "details": "compared to 1,25(OH)2D3", "source_text": "as §1\nIt is well-established that the biological properties of 1,25(OH)2D3 and its analogs are mediated by their interaction with VDR.\nas §3"}, "[8]": {"tested_on": "breast cancer cells (MCF-7)", "experiment": "microscopic examination of the cells, MCF-7", "type": "cell-based", "details": "MCF-7, treated for sixteen (16) hours"}, "[9]": {"tested_on": "immortalized normal prostate cells (PZ-HPV-7)", "experiment": "microscopic examination of the cells, PZ-HPV-7", "type": "cell-based", "details": "PZ-HPV-7, treated for sixteen (16) hours"}, "[10]": {"tested_on": "hormone-sensitive LNCaP cells", "experiment": "microscopic examination of the cells, LNCaP", "type": "cell-based, human", "details": "treated for sixteen (16) hours"}, "PZ-HPV-7 cells": {"tested_on": "PZ-HPV-7 cells", "experiment": "Methylene blue assay, viable cell count, PZ-HPV-7", "type": "cell-based", "details": "10^−6M, 16 hours"}, "LNCaP cells": {"tested_on": "LNCaP cells", "experiment": "Methylene blue assay, viable cell count, LNCaP", "details": "10^−6M, 16 hours", "procedure": "as §2\nThe inventors studied dose-dependency of antiproliferation and cytotoxicity by 1,25(OH)2D3 or 1,25(OH)2D3-3-BE in LNCaP cells. The cells were treated with 10^−8-10^−6M of either 1,25(OH)2D3 or 1,25(OH)2D3-3-BE or ethanol (used as a control). The effect on proliferation and viable cell count were determined by using ^3H-thymidine incorporation and Methylene blue assay respectively."}, "vitamin D receptor, VDR": {"biological_target": "vitamin D receptor, VDR (Homo sapiens, UniProt P11473)", "sequence (P11473 whole entry)": "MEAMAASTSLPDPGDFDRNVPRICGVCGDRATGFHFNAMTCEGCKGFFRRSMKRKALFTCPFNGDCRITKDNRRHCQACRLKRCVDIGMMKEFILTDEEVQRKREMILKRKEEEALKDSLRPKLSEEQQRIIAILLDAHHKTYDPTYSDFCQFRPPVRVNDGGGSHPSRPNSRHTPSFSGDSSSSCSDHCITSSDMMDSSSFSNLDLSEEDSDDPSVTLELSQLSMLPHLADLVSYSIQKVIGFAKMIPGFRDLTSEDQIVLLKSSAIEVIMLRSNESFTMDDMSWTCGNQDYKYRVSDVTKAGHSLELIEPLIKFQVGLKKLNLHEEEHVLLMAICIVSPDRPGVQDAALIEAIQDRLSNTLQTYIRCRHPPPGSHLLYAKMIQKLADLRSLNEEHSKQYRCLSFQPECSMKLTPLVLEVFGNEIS", "details": "cited from earlier work"}, "[11]": {"tested_on": "intestinal cancer Caco-2 cells", "details": "compared with 1,25(OH)2D3; cited from earlier work"}, "VDR-regulated genes": {"tested_on": "VDR-regulated genes", "details": "higher level sustained for a longer duration at a lower concentration of the analog; cited from earlier work"}, "[12]": {"tested_on": "prostate tumor induced with PC-3 cells", "experiment": "in vivo effect in mice bearing prostate tumor induced with PC-3 cells", "set-up": "species or system male SCID mice", "details": "SCID mice with PC-3 tumor; 25-OH-D3 10 μg or 25-OH-D3-3-BE 13.2 μg (molar equivalent) i.p. in alternate days for two weeks", "procedure": "Sesame oil solutions (200 μl) of either 25-OH-D3 (10 μg) or 25-OH-D3-3-BE (13.2 μg, molar equivalent of 25-OH-D3) or vehicle were administered i.p. in alternate days for two weeks. […] At the end, mice were anesthetized, tumors were removed, and blood was collected. Tumors were embedded in paraffin and sections were made."}, "VDR": {"biological_target": "VDR (Homo sapiens, UniProt P11473)", "sequence (P11473 whole entry, species assumed)": "as the sequence (P11473 whole entry) above", "details": "compared with 1,25(OH)2D3; cited from earlier work"}, "[13]": {"experiment": "in vivo toxicity study in CD-1 mice", "details": "CD-1 mice; for Body Weight On Day 0: beginning of the experiment", "source_text": "Investigators completed an in vivo study to determine the toxicity of 25-OH-D3-3-BE at various doses in CD-1 mice. The animals (average weight ˜30 gms) were maintained with normal chow and water ad libitum. […] At the end of the experiment the animals were lightly anesthetized and blood collected after decapitation for serum calcium-analysis. […] Frequency of administration, body weights at the beginning and at the end of the experiment and serum calcium values are given in the accompanying Table 1."}}, "note": "Entries after “also recorded” stand apart in the source; their conditions may differ.", "data": [{"smiles": "C=C1/C(=C\\C=C2/CCC[C@]3(C)[C@@H]([C@H](C)CCCC(C)(C)O)CC[C@@H]23)C[C@@H](O)C[C@@H]1O", "note": "[1,25(OH)2D3, 1-α,25-dihydroxyvitamin D3, reference compound]", "values": [{"measurement": "effect on proliferation (3H-thymidine incorporation)", "setting": "[1]", "value": "only inhibition of proliferation"}, {"measurement": "antiproliferative effect (3H-thymidine incorporation)", "setting": "[1]", "value": "dose-dependant antiproliferation"}, {"measurement": "effect on proliferation (3H-thymidine incorporation)", "setting": "[2]", "value": "only inhibition of proliferation"}, {"measurement": "dose-dependency of antiproliferative effect", "setting": "[2]", "value": "most pronounced at 10^−6M"}, {"measurement": "antiproliferative effect (3H-thymidine incorporation)", "setting": "[2]", "value": "dose-dependant antiproliferation"}, {"measurement": "antiproliferative effect (3H-thymidine incorporation)", "setting": "[3]", "value": "dose-dependant antiproliferation"}, {"measurement": "microscopic appearance of the cells", "setting": "[4]", "value": "appeared normal"}, {"measurement": "microscopic appearance of the cells", "setting": "[5]", "value": "appeared normal"}, {"measurement": "DNA fragmentation (apoptosis)", "setting": "PC-3 cells", "value": "no such DNA cleavage was observed"}, {"measurement": "antiproliferative effect (3H-thymidine incorporation)", "setting": "[6]", "value": "dose-dependant antiproliferation"}, {"measurement": "antiproliferative effect (3H-thymidine incorporation)", "setting": "[7]", "value": "dose-dependant antiproliferation"}, {"measurement": "microscopic appearance of the cells", "setting": "[8]", "value": "appeared normal"}, {"measurement": "microscopic appearance of the cells", "setting": "[9]", "value": "appeared normal"}, {"measurement": "microscopic appearance of the cells", "setting": "[10]", "value": "appeared normal"}]}, {"smiles": "C=C1/C(=C\\C=C2/CCC[C@@]3(C)C2CC[C@@H]3C(C)CCCC(C)(C)O)C[C@@H](OC(=O)CBr)CC1O", "note": "(stereo partly drawn) [1,25(OH)2D3-3-BE, 1α,25-dihydroxy-vitamin D3-3β-(2)-bromoacetate]", "values": [{"measurement": "viable cell count diminished by", "setting": "PZ-HPV-7 cells", "value": "approximately 15%"}, {"measurement": "effect on proliferation (3H-thymidine incorporation)", "setting": "[1]", "value": "almost completely inhibited"}, {"measurement": "antiproliferative effect (3H-thymidine incorporation)", "setting": "[1]", "value": "stronger antiproliferative effect; also recorded: dose-dependant antiproliferation"}, {"measurement": "effect on proliferation (3H-thymidine incorporation)", "setting": "[2]", "value": "almost completely inhibited"}, {"measurement": "dose-dependency of antiproliferative effect", "setting": "[2]", "value": "most pronounced at 10^−6M"}, {"measurement": "antiproliferative effect (3H-thymidine incorporation)", "setting": "[2]", "value": "stronger antiproliferative effect; also recorded: dose-dependant antiproliferation"}, {"measurement": "decrease of proliferation compared with 1,25(OH)2D3", "setting": "[2]; dose levels of 10^−6 and 10^−7M", "value": "much stronger in decreasing the proliferation than 1,25(OH)2D3"}, {"measurement": "antiproliferative effect (3H-thymidine incorporation)", "setting": "[3]", "value": "stronger antiproliferative effect; also recorded: dose-dependant antiproliferation"}, {"measurement": "microscopic appearance of the cells", "setting": "[4]", "value": "appeared to have undergone apoptosis"}, {"measurement": "microscopic appearance of the cells", "setting": "[5]", "value": "appeared normal"}, {"measurement": "viable cell count diminished by", "setting": "LNCaP cells", "value": "approximately 60%"}, {"measurement": "speed of cross-linking to VDR", "setting": "vitamin D receptor, VDR", "value": "extremely rapid"}, {"measurement": "antiproliferative effect (3H-thymidine incorporation)", "setting": "[6]", "value": "stronger antiproliferative effect; also recorded: dose-dependant antiproliferation"}, {"measurement": "calcemic index", "setting": "[11]", "value": "lower calcemic index than 1,25(OH)2D3"}, {"measurement": "transcription of VDR-regulated genes", "setting": "VDR-regulated genes", "value": "increased transcription"}, {"measurement": "antiproliferative effect (3H-thymidine incorporation)", "setting": "[7]", "value": "stronger antiproliferative effect; also recorded: dose-dependant antiproliferation"}, {"measurement": "microscopic appearance of the cells", "setting": "[8]", "value": "appeared normal"}, {"measurement": "microscopic appearance of the cells", "setting": "[9]", "value": "appeared normal"}, {"measurement": "microscopic appearance of the cells", "setting": "[10]", "value": "appeared to have undergone apoptosis"}]}, {"smiles": "C=C1CC[C@H](O)C/C1=C/C=C1\\CCC[C@]2(C)[C@@H]([C@H](C)CCCC(C)(C)O)CC[C@@H]12", "note": "[25-OH-D3, 25-hydroxyvitamin D3, reference compound]", "values": [{"measurement": "DNA fragmentation (apoptosis)", "setting": "PC-3 cells", "value": "no such DNA cleavage was observed"}, {"measurement": "condition of the mice at the end of treatment", "setting": "[12]", "value": "very sick, and most of them died"}, {"measurement": "VDR-binding ability", "setting": "VDR", "value": "significantly low VDR-binding ability"}, {"measurement": "Body Weight on Day 12", "setting": "[13]; 3.3 μg/kg intraperitoneally", "value": "33.5 ± 1", "unit": "grams"}, {"measurement": "Body Weight On Day 0", "setting": "[13]; 3.3 μg/kg intraperitoneally", "value": "31.5 ± 1.56", "unit": "grams"}, {"measurement": "Body Weight on Day 12", "setting": "[13]; 33 μg/kg intraperitoneally", "value": "30.66 ± 2", "unit": "grams"}, {"measurement": "Body Weight On Day 0", "setting": "[13]; 33 μg/kg intraperitoneally", "value": "28.9 ± 2", "unit": "grams"}]}, {"smiles": "O=C(CBr)OCc1ccccc1", "note": "[benzylbomacetate, benzylbormoacetate, reference compound]", "values": [{"measurement": "antiproliferative effect (3H-thymidine incorporation)", "setting": "[2]", "value": "no effect"}, {"measurement": "antiproliferative effect (3H-thymidine incorporation)", "setting": "[7]", "value": "no effect"}]}, {"smiles": "O=C(O)CBr", "note": "[bromoacetic acid, reference compound]", "values": [{"measurement": "antiproliferative effect (3H-thymidine incorporation)", "setting": "[2]", "value": "no effect"}, {"measurement": "growth-inhibitory effect (3H-thymidine incorporation)", "setting": "[3]; PC-3 cells, 10^−6M", "value": "not antiproliferative"}, {"measurement": "antiproliferative effect (3H-thymidine incorporation)", "setting": "[7]", "value": "no effect"}]}]}
